# Measurements as given in article PMC6037162 (Journal of the American Chemical Society, 2018).
# Positions count from the first letter of the chain named. Where “and” joins values, the source holds several entries; their conditions need not be identical. Equal values may be shown once.
# Columns and labels:
# I170A TbbTIM [1] = target: T1, I170A TbbTIM (Trypanosoma brucei brucei, UniProt P04789, I172A); settings: deprotonation of EH·I^3–; ref [14]; cited from earlier work
# wildtype TIM [2] = test: Binding of PGA trianion to wildtype TIMs, summary of Table 1; type: biochemical
# [3] = ref [20]; cited from earlier work
# mutant TIMs = test: Binding of PGA trianion to mutant TIMs, summary of Table 1; type: biochemical; settings: read-out: (Ki)E; range over mutant TIMs
# P166A TbbTIM = P166A TbbTIM (Trypanosoma brucei brucei, UniProt P04789, P168A); test: TIM-catalyzed isomerization of GAP; type: biochemical; settings: difference to wildtype enzyme
# [4] = target: L7R cTIM (loop 7 replacement) (Gallus gallus, UniProt P00940, G210A/S211G/Y208T); test: TIM-catalyzed isomerization of GAP; type: biochemical, chicken
# wildtype TbbTIM [5] = target: T2, wildtype TbbTIM (Trypanosoma brucei brucei, UniProt P04789); type: biochemical; settings: deprotonation of EH·I^3–; estimated from (Ki)E·KEHI and (Ki)E
# I170A TbbTIM [6] = target: T1, I170A TbbTIM; test: TIM-catalyzed isomerization of GAP; type: biochemical
# S211A yTIM = target: T3, S211A yTIM (Saccharomyces cerevisiae, UniProt P00942, S211A); test: TIM-catalyzed isomerization of GAP; type: biochemical, yeast
# T3 sequence (P00942 1-248 S211A): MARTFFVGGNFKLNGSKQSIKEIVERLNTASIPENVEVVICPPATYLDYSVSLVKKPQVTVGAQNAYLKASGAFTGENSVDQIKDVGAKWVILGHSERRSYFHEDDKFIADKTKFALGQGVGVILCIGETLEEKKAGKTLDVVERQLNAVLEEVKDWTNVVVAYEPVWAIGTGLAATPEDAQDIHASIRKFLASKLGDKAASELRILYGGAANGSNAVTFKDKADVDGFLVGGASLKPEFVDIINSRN
# Y208F yTIM = target: T4, Y208F yTIM (Saccharomyces cerevisiae, UniProt P00942, Y208F); test: TIM-catalyzed isomerization of GAP; type: biochemical, yeast
# T4 sequence (P00942 1-248 Y208F): T3 sequence (P00942 1-248 S211A) with Y208F, A211S
# wildtype TbbTIM [7] = target: T2, wildtype TbbTIM; settings: pH profile linear through pH 9.7; ref [14]; cited from earlier work
# [8] = Storage stability of PGA stock solutions; type: physicochemical; settings: solutions at pH 7.5 stored at −20 °C
# wildtype cTIM = wildtype cTIM (Gallus gallus, UniProt P00940); test: TIM-catalyzed isomerization of GAP; type: biochemical, chicken; settings: deprotonation of EH·I^3–; estimated from (Ki)E·KEHI and (Ki)E
# wildtype TIM [9] = settings: compared with D-GAP; ref [30]; cited from earlier work
# [10] = Acidity constants of ligands in water
# [11] = deprotonation of EH·I^3–, fit to eq 7
# [12] = (Ki)E, release of PGA trianion from E^–·I^3–, fit to eq 7
# Sequence of L7R cTIM (loop 7 replacement) (P00940 whole entry Y208T/G210A/S211G): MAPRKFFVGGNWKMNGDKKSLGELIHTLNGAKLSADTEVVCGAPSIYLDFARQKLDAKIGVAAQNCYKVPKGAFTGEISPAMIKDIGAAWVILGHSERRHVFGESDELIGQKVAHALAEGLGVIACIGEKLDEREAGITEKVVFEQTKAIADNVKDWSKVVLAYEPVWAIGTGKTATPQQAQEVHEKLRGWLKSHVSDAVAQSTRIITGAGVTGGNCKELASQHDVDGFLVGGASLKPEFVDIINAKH
# Sequence of wildtype cTIM (P00940 whole entry): as the sequence (P00940 whole entry Y208T/G210A/S211G) above, with T208Y, A210G, G211S counted along it
smiles,measurement,setting,value
"O=C(O)COP(=O)(O)O [PGA, 2-Phosphoglycolic acid]",KEHI,I170A TbbTIM [1],1.9 × 10^–8 M
same,binding energy for formation of E^–·I^3–,wildtype TIM [2]; from (Ki)E,3 kcal/mol
same,binding energy of I^3– to EH,wildtype TIM [2]; from (Ki)EH,11.1 to 11.8 kcal/mol
same,pKa for loss of a proton from PGA dianion to form PGA trianion,[3],6.3
same,Ki,mutant TIMs,3 to 30 mM
same,Δ(pK)EHI,P166A TbbTIM,0.7
same,Ki,[4],2.6 mM
same,KEHI,[4]; [11],1.8 × 10^–7 M
same,Δ(pK)EHI,[4]; difference to wildtype enzyme,3.8
same,KEHI,wildtype TbbTIM [5],1.2 × 10^–11 M
same,Ki,I170A TbbTIM [6],7.94 mM
same,Δ(pK)EHI,I170A TbbTIM [6]; difference to wildtype enzyme,2.3
same,Ki,S211A yTIM; [12],20 mM and 24 mM
same,Δ(pK)EHI,S211A yTIM; difference to wildtype enzyme,2.2
same,Ki,Y208F yTIM; [12],16 mM
same,KEHI,Y208F yTIM; [11],4.9 × 10^–7 M
same,Δ(pK)EHI,Y208F yTIM; difference to wildtype enzyme,4.1
same,Ki,Y208F yTIM; log (Ki)E,15.8 mM
same,pKEHI for release of a proton from the EH·I^3– complex,wildtype TbbTIM [7],> 10
same,stability toward hydrolysis of the phosphoryl group,[8],at least 6 months
same,KEHI,wildtype cTIM,2.9 × 10^–11 M
O=C[C@@H](O)COP(=O)(O)O [L-GAP],binding to TIM,wildtype TIM [9],binds much more weakly to TIM than D-GAP
"O=C[C@H](O)COP(=O)(O)O [GAP, D-Glyceraldehyde 3-phosphate]",pKa,[10],6 ± 0.1
